Measured values taken from EP4596574A1, “GLP-1/GCG/GIP TRIPLE-RECEPTOR AGONIST AND USE THEREOF” (Sunshine Lake Pharma Co., Ltd., priority 2022, dated 2024).
Starred links: 1 amine or outer side, 2 acyl side, 3 side chain; linkers in the order of their positions; H or OH if unused. Non-standard residues stand in square brackets, D forms with d. Residues, ends and D or L forms follow the SMILES beside them. Groups on a side chain read outwards from the residue. *: point of attachment. C20 diacid = O=C(O)CCCCCCCCCCCCCCCCCCC(=O)*; C18 diacid = O=C(O)CCCCCCCCCCCCCCCCC(=O)*; αMePhe(2-F) = C[C@](N)(Cc1ccccc1F)C(=O)O; γGlu = O=C(O)[C@H](CCC(=O)[*:2])N[*:1]; AEEA = NCCOCCOCC(=O)O; Aib = CC(C)(N)C(=O)O

Key:
Format in all cases: cell-based
[1] = target: T1, GCGR (Homo sapiens, UniProt P47871); test: In vitro cell activity, cAMP production in HEK293 cells expressing GCGR; settings: HEK293-GCGR cells, cAMP; read-out: GCGR (EC50)
T1 construct: expressed in transfected cells; host or cells: HEK293 (HEK293-GCGR)
Procedure, shortened: (§1)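 Cells were plated at 4×10^5 cells/mL, and detection reagents (cAMP-d2, anti-cAMP cryptate, 1:1) were incubated 1 h at room temperature in the dark or overnight at 4 °C.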

[2] = target: T2, GIPR (Homo sapiens, UniProt P48546); test: In vitro cell activity, cAMP production in HEK293 cells expressing GIPR; settings: HEK293-GIPR cells, cAMP; read-out: GIPR (EC50)
T2 construct: expressed in transfected cells; host or cells: HEK293 (HEK293-GIPR)
T2 sequence (P48546 22-466): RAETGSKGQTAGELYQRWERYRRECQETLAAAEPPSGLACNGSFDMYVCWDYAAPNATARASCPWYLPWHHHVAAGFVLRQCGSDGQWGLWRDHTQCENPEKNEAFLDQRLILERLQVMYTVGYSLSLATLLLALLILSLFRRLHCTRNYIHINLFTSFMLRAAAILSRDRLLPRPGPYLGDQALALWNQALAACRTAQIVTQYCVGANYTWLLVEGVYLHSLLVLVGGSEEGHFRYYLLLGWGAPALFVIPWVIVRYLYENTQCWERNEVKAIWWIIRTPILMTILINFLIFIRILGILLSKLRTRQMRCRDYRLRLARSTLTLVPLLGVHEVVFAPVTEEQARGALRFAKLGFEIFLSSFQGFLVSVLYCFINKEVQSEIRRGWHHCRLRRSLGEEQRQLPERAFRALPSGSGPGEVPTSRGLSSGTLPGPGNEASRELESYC
Procedure, shortened: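 cAMP accumulation is quantified by homogeneous TR-FRET (cAMP-d2 plus anti-cAMP cryptate) in GIPR-expressing HEK293 cells seeded from a 4×10^5 cells/mL suspension and treated with compound. The signal ratio is plotted against concentration and fitted to a four-parameter curve to give EC50.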

[3] = target: T3, GLP-1R (Homo sapiens, UniProt P43220); test: In vitro cell activity, cAMP production in HEK293 cells expressing GLP-1R; settings: HEK293-GLP-1R cells, cAMP; read-out: GLP-1R (EC50)
T3 construct: expressed in transfected cells; host or cells: HEK293 (HEK293-GLP-1R)
Procedure, shortened: as §1

T1 sequence (P47871 26-477, species assumed): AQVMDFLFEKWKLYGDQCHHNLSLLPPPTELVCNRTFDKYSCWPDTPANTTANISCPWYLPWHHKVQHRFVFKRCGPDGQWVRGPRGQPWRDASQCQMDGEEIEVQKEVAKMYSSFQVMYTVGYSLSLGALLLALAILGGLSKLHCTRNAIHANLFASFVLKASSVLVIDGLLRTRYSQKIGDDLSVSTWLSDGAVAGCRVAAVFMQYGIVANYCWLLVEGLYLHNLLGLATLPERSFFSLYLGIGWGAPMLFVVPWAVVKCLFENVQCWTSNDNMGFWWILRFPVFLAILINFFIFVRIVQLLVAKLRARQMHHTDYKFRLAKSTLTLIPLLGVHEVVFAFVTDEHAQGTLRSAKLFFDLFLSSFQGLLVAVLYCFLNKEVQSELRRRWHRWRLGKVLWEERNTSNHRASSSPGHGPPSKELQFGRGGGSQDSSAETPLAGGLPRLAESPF
T3 sequence (P43220 24-463, species assumed): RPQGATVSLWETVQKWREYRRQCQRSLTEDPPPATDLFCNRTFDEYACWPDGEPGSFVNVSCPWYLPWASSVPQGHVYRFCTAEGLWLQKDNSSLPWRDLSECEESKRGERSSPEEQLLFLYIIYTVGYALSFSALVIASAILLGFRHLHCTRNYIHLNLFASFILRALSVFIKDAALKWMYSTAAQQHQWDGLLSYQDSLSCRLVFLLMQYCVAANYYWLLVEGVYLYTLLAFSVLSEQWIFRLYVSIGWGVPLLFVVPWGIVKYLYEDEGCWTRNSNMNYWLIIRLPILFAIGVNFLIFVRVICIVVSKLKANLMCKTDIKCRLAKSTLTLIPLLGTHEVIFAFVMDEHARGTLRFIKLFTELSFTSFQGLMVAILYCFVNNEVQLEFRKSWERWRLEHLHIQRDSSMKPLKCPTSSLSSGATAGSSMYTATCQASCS

Row | Compound | EC50 [1] [pM] | EC50 [2] [pM] | EC50 [3] [pM]
1 | CC[C@H](C)[C@H](NC(=O)[C@H](CCC(=O)O)NC(=O)[C@H](CC(=O)O)NC(=O)[C@H](CC(C)C)NC(=O)[C@H](CC(C)C)NC(=O)[C@@H](NC(=O)[C@H](CO)NC(=O)[C@H](Cc1ccc(O)cc1)NC(=O)[C@H](CC(=O)O)NC(=O)[C@H](CO)NC(=O)[C@@H](NC(=O)[C@](C)(Cc1ccccc1F)NC(=O)[C@@H](NC(=O)CNC(=O)[C@H](Cc1c[nH]cn1)NC(=O)C(C)(C)NC(=O)[C@@H](N)Cc1ccc(O)cc1)[C@@H](C)O)[C@@H](C)O)[C@@H](C)CC)C(=O)N[C@@H](C)C(=O)N[C@@H](CCC(N)=O)C(=O)N[C@@H](CCCCNC(=O)COCCOCCNC(=O)COCCOCCNC(=O)CC[C@H](NC(=O)CCCCCCCCCCCCCCCCCCC(=O)O)C(=O)O)C(=O)N[C@@H](CC(=O)O)C(=O)N[C@@H](Cc1ccccc1)C(=O)N[C@H](C(=O)N[C@@H](CCC(=O)O)C(=O)N[C@@H](Cc1c[nH]c2ccccc12)C(=O)N[C@@H](CC(C)C)C(=O)N[C@@H](CC(C)C)C(=O)N[C@@H](CCC(=O)O)C(=O)NCC(=O)NCC(=O)N1CCC[C@H]1C(=O)N[C@@H](CO)C(=O)N[C@@H](CO)C(=O)NCC(=O)N[C@@H](C)C(=O)N1CCC[C@H]1C(=O)N1CCC[C@H]1C(=O)N1CCC[C@H]1C(=O)N[C@@H](CO)C(=O)O)[C@@H](C)CC [HEC-PT66] (H-Y[Aib]HGT[αMePhe(2-F)]TSDYSILLDEIAQK([AEEA-AEEA-γGlu-C20 diacid])DFIEWLLEGGPSSGAPPPS-OH) | 12300 | 213 | 7140
2 | CC[C@H](C)[C@H](NC(=O)[C@H](Cc1ccccc1)NC(=O)[C@H](CCC(=O)O)NC(=O)[C@H](CCCCNC(=O)COCCOCCNC(=O)CC[C@H](NC(=O)CCCCCCCCCCCCCCCCC(=O)O)C(=O)O)NC(=O)[C@H](CCC(N)=O)NC(=O)[C@H](CCCNC(=N)N)NC(=O)[C@@H](NC(=O)[C@H](CCCNC(=N)N)NC(=O)[C@H](CC(=O)O)NC(=O)[C@H](CC(C)C)NC(=O)[C@H](CC(C)C)NC(=O)[C@@H](NC(=O)[C@H](CO)NC(=O)[C@H](Cc1ccc(O)cc1)NC(=O)[C@H](CC(=O)O)NC(=O)[C@H](CO)NC(=O)[C@@H](NC(=O)[C@](C)(Cc1ccccc1F)NC(=O)[C@@H](NC(=O)CNC(=O)[C@H](CCC(N)=O)NC(=O)C(C)(C)NC(=O)[C@@H](N)Cc1ccc(O)cc1)[C@@H](C)O)[C@@H](C)O)[C@@H](C)CC)[C@@H](C)CC)C(=O)N[C@@H](CCC(=O)O)C(=O)N[C@@H](Cc1c[nH]c2ccccc12)C(=O)N[C@@H](CC(C)C)C(=O)N[C@@H](CC(C)C)C(=O)N[C@@H](C)C(=O)NCC(=O)NCC(=O)N1CCC[C@H]1C(=O)N[C@@H](CO)C(=O)N[C@@H](CO)C(=O)NCC(=O)N[C@@H](C)C(=O)N1CCC[C@H]1C(=O)N1CCC[C@H]1C(=O)N1CCC[C@H]1C(=O)N[C@@H](CO)C(=O)O [HEC-PT125] (H-Y[Aib]QGT[αMePhe(2-F)]TSDYSILLDRIRQK([AEEA-γGlu-C18 diacid])EFIEWLLAGGPSSGAPPPS-OH) | 26.9 | 21.7 | 123
3 | CC[C@H](C)[C@H](NC(=O)[C@H](Cc1ccccc1)NC(=O)[C@H](C)NC(=O)[C@H](CCCCN)NC(=O)[C@H](CCC(N)=O)NC(=O)[C@H](CCCCN)NC(=O)[C@H](CCCCNC(=O)COCCOCCNC(=O)CC[C@H](NC(=O)CCCCCCCCCCCCCCCCC(=O)O)C(=O)O)NC(=O)[C@H](CCC(=O)O)NC(=O)[C@H](CC(=O)O)NC(=O)[C@H](CC(C)C)NC(=O)[C@H](CC(C)C)NC(=O)[C@@H](NC(=O)[C@H](CO)NC(=O)[C@H](Cc1ccc(O)cc1)NC(=O)[C@H](CC(=O)O)NC(=O)[C@H](CO)NC(=O)[C@@H](NC(=O)[C@](C)(Cc1ccccc1F)NC(=O)[C@@H](NC(=O)CNC(=O)[C@H](CCC(N)=O)NC(=O)C(C)(C)NC(=O)[C@@H](N)Cc1ccc(O)cc1)[C@@H](C)O)[C@@H](C)O)[C@@H](C)CC)C(=O)N[C@@H](CCC(=O)O)C(=O)N[C@@H](Cc1ccc(O)cc1)C(=O)N[C@@H](CC(C)C)C(=O)N[C@@H](CC(C)C)C(=O)N[C@@H](C)C(=O)NCC(=O)NCC(=O)N1CCC[C@H]1C(=O)N[C@@H](CO)C(=O)N[C@@H](CO)C(=O)NCC(=O)N[C@@H](C)C(=O)N1CCC[C@H]1C(=O)N1CCC[C@H]1C(=O)N1CCC[C@H]1C(=O)N[C@@H](CO)C(N)=O [HEC-PT130] | 4860 | 541 | 170
4 | CC[C@H](C)[C@H](NC(=O)[C@H](Cc1ccccc1)NC(=O)[C@H](C)NC(=O)[C@H](CCCCN)NC(=O)[C@H](CCC(N)=O)NC(=O)[C@H](CCCCN)NC(=O)[C@H](CCCCNC(=O)COCCOCCNC(=O)CC[C@H](NC(=O)CCCCCCCCCCCCCCCCCCC(=O)O)C(=O)O)NC(=O)[C@H](CCC(=O)O)NC(=O)[C@H](CC(=O)O)NC(=O)[C@H](CC(C)C)NC(=O)[C@H](CC(C)C)NC(=O)[C@@H](NC(=O)[C@H](CO)NC(=O)[C@H](Cc1ccc(O)cc1)NC(=O)[C@H](CC(=O)O)NC(=O)[C@H](CO)NC(=O)[C@@H](NC(=O)[C@](C)(Cc1ccccc1F)NC(=O)[C@@H](NC(=O)CNC(=O)[C@H](CCC(N)=O)NC(=O)C(C)(C)NC(=O)[C@@H](N)Cc1ccc(O)cc1)[C@@H](C)O)[C@@H](C)O)[C@@H](C)CC)C(=O)N[C@@H](CCC(=O)O)C(=O)N[C@@H](Cc1ccc(O)cc1)C(=O)N[C@@H](CC(C)C)C(=O)N[C@@H](CC(C)C)C(=O)N[C@@H](C)C(=O)NCC(=O)NCC(=O)N1CCC[C@H]1C(=O)N[C@@H](CO)C(=O)N[C@@H](CO)C(=O)NCC(=O)N[C@@H](C)C(=O)N1CCC[C@H]1C(=O)N1CCC[C@H]1C(=O)N1CCC[C@H]1C(=O)N[C@@H](CO)C(N)=O [HEC-PT131] | 8070 | 1130 | 249
5 | CC[C@H](C)[C@H](NC(=O)[C@H](Cc1ccccc1)NC(=O)[C@H](C)NC(=O)[C@H](CCC(N)=O)NC(=O)[C@H](CCC(N)=O)NC(=O)[C@H](CCCNC(=N)N)NC(=O)[C@@H](NC(=O)[C@H](CCCNC(=N)N)NC(=O)[C@H](CC(=O)O)NC(=O)[C@H](CCCCNC(=O)COCCOCCNC(=O)CC[C@H](NC(=O)CCCCCCCCCCCCCCCCC(=O)O)C(=O)O)NC(=O)[C@H](CC(C)C)NC(=O)[C@@H](NC(=O)[C@H](CO)NC(=O)[C@H](Cc1ccc(O)cc1)NC(=O)[C@H](CC(=O)O)NC(=O)[C@H](CO)NC(=O)[C@@H](NC(=O)[C@](C)(Cc1ccccc1F)NC(=O)[C@@H](NC(=O)CNC(=O)[C@H](CCC(N)=O)NC(=O)C(C)(C)NC(=O)[C@@H](N)Cc1ccc(O)cc1)[C@@H](C)O)[C@@H](C)O)[C@@H](C)CC)[C@@H](C)CC)C(=O)N[C@@H](CCC(=O)O)C(=O)N[C@@H](Cc1ccc(O)cc1)C(=O)N[C@@H](CC(C)C)C(=O)N[C@@H](CC(C)C)C(=O)N[C@@H](C)C(=O)NCC(=O)NCC(=O)N1CCC[C@H]1C(=O)N[C@@H](CO)C(=O)N[C@@H](CO)C(=O)NCC(=O)N[C@@H](C)C(=O)N1CCC[C@H]1C(=O)N1CCC[C@H]1C(=O)N1CCC[C@H]1C(=O)N[C@@H](CO)C(=O)O [HEC-PT147] (H-Y[Aib]QGT[αMePhe(2-F)]TSDYSILK([AEEA-γGlu-C18 diacid])DRIRQQAFIEYLLAGGPSSGAPPPS-OH) | 170 | 86.1 | 174
6 | CC[C@H](C)[C@H](NC(=O)[C@H](Cc1ccccc1)NC(=O)[C@H](C)NC(=O)[C@H](CCCNC(=N)N)NC(=O)[C@H](CCC(N)=O)NC(=O)[C@H](C)NC(=O)[C@H](CCCCNC(=O)COCCOCCNC(=O)CC[C@H](NC(=O)CCCCCCCCCCCCCCCCCCC(=O)O)C(=O)O)NC(=O)[C@H](CCC(=O)O)NC(=O)[C@H](CC(=O)O)NC(=O)[C@H](CC(C)C)NC(=O)[C@H](CC(C)C)NC(=O)[C@@H](NC(=O)[C@H](CO)NC(=O)[C@H](Cc1ccc(O)cc1)NC(=O)[C@H](CC(=O)O)NC(=O)[C@H](CO)NC(=O)[C@@H](NC(=O)[C@](C)(Cc1ccccc1F)NC(=O)[C@@H](NC(=O)CNC(=O)[C@H](Cc1c[nH]cn1)NC(=O)C(C)(C)NC(=O)[C@@H](N)Cc1ccc(O)cc1)[C@@H](C)O)[C@@H](C)O)[C@@H](C)CC)C(=O)N[C@@H](CCC(=O)O)C(=O)N[C@@H](Cc1ccc(O)cc1)C(=O)N[C@@H](CC(C)C)C(=O)N[C@@H](CC(C)C)C(=O)N[C@@H](C)C(=O)NCC(=O)NCC(=O)N1CCC[C@H]1C(=O)N[C@@H](CO)C(=O)N[C@@H](CO)C(=O)NCC(=O)N[C@@H](C)C(=O)N1CCC[C@H]1C(=O)N1CCC[C@H]1C(=O)N1CCC[C@H]1C(=O)N[C@@H](CO)C(=O)O [HEC-PT83] | 311 | 158 | 256
